Assay results taken from ChEMBL document CHEMBL5291721, “A preclinical secondary pharmacology resource illuminates target-adverse drug reaction associations of marketed drugs” (Nat Commun, 2023).

What was measured:
Adenosine receptor A2a = Adenosine receptor A2a (Homo sapiens, UniProt P29274)
[1] = target: T1, Alpha-2A adrenergic receptor (Homo sapiens, UniProt P08913); type: functional, cell-based
T1 sequence (P08913 whole entry): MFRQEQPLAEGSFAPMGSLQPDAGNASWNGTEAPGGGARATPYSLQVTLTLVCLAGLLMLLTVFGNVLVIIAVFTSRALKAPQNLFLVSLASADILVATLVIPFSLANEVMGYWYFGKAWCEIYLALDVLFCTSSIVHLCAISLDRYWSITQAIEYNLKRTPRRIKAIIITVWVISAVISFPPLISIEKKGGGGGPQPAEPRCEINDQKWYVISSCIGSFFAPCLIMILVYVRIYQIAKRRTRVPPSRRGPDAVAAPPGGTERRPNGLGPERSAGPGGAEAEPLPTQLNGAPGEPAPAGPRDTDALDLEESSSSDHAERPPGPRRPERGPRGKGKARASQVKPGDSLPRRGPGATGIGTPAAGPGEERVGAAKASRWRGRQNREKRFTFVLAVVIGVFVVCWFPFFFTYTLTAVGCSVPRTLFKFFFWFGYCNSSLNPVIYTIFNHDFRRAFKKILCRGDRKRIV

[2] = target: T2, Type-1 angiotensin II receptor (Homo sapiens, UniProt P30556)
T2 sequence (P30556 whole entry): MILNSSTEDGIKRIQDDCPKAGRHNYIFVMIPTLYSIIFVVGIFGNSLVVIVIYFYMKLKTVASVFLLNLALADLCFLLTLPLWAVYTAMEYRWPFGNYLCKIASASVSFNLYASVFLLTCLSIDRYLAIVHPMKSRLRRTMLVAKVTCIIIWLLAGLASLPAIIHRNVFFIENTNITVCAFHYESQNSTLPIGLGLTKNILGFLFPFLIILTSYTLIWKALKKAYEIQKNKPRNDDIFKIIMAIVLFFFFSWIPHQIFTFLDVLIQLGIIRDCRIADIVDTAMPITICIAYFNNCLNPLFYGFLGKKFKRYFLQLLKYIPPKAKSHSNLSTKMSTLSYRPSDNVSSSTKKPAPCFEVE

Vasopressin V1a receptor = Vasopressin V1a receptor (Homo sapiens, UniProt P37288)
Chain of Vasopressin V1a receptor (P37288 whole entry): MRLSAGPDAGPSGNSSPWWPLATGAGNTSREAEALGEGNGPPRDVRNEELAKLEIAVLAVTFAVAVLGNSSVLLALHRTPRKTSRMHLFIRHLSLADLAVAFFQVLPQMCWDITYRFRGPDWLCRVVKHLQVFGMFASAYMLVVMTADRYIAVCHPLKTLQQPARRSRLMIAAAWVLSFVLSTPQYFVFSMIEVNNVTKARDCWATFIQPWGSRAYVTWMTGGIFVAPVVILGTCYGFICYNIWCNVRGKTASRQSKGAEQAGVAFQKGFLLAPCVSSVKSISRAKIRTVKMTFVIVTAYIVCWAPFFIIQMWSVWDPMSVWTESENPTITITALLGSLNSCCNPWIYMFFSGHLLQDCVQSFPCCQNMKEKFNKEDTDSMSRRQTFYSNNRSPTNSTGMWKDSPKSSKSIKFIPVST

[3] = target: T3, Gastrin/cholecystokinin type B receptor (Homo sapiens, UniProt P32239)
T3 sequence (P32239 whole entry): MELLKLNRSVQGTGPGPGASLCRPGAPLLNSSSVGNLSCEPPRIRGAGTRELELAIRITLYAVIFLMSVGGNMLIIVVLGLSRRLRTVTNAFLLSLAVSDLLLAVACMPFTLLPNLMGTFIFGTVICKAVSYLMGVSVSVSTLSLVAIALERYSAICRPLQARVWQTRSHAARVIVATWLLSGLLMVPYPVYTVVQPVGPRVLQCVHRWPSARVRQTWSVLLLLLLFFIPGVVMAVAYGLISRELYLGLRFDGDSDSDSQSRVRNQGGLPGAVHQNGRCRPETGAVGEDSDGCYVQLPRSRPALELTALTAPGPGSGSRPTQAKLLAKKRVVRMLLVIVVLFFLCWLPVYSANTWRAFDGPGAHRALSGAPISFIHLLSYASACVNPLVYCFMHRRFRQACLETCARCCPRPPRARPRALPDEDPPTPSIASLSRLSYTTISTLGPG

[4] = target: Gamma-aminobutyric acid receptor subunit alpha-1 (Rattus norvegicus, UniProt P62813); type: functional
Chain of Gamma-aminobutyric acid receptor subunit alpha-1 (P62813 whole entry): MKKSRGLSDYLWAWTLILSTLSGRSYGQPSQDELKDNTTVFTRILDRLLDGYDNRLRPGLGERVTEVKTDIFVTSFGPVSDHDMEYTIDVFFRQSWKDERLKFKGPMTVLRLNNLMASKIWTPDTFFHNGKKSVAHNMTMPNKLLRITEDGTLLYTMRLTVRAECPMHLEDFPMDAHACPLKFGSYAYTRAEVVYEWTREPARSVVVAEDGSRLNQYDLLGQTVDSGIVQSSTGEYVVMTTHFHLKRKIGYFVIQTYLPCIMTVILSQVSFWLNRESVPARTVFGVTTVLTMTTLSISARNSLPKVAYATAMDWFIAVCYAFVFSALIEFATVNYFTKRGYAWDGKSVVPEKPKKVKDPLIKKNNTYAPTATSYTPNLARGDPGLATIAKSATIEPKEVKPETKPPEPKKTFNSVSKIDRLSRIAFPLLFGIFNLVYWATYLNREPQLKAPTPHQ

Histamine H2 receptor = Histamine H2 receptor (Homo sapiens, UniProt P25021); type: functional, cell-based
Chain of Histamine H2 receptor (P25021 whole entry): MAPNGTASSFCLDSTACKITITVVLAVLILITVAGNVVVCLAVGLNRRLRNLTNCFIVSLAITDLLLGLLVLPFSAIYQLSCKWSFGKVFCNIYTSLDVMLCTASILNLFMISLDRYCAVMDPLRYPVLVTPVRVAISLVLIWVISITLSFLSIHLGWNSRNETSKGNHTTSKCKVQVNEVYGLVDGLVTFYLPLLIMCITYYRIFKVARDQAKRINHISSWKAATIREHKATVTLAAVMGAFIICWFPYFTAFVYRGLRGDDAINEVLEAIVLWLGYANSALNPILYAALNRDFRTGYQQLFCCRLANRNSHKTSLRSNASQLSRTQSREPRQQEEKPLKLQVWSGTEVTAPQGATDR

Motilin receptor = Motilin receptor (Homo sapiens, UniProt O43193)
Chain of Motilin receptor (O43193 whole entry): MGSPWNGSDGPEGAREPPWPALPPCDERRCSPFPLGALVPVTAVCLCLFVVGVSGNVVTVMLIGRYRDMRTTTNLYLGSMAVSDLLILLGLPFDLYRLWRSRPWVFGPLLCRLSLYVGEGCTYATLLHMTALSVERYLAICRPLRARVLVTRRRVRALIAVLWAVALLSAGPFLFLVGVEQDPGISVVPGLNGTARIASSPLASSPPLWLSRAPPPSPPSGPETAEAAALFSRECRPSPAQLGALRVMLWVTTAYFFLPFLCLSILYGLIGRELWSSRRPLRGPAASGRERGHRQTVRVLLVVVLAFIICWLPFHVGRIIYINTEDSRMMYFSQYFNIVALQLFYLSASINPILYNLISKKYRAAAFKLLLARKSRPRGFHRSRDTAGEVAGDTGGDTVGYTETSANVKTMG

Progesterone receptor [5] = target: T4, Progesterone receptor (Homo sapiens, UniProt P06401); type: functional
T4 sequence (P06401 whole entry): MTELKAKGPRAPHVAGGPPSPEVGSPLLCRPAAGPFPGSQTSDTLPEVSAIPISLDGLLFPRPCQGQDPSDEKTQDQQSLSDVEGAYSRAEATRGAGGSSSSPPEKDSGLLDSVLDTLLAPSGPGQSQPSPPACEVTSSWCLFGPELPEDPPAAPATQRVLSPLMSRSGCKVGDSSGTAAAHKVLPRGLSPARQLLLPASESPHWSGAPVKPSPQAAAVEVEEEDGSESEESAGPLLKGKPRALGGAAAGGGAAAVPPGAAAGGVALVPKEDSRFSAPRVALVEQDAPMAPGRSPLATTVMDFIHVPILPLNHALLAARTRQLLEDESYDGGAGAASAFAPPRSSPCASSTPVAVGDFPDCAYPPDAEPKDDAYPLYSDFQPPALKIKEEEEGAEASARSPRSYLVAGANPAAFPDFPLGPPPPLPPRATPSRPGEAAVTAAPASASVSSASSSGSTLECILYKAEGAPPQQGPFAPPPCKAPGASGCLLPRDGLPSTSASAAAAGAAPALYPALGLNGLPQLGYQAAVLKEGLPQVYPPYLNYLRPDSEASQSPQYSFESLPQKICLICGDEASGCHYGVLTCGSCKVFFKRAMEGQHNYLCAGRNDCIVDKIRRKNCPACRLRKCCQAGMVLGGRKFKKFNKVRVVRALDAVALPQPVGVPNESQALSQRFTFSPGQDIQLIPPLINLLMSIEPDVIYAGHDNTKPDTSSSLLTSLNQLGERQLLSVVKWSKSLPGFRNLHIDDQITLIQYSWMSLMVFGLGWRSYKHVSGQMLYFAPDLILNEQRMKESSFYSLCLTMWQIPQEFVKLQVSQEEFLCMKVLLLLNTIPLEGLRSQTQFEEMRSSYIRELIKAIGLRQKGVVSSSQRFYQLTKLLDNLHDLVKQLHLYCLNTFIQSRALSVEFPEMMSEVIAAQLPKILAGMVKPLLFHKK

Progesterone receptor [6] = target: T4, Progesterone receptor; type: functional; remark: listed apart in the source

Measured: AC50
Note: assay procedure not described here.

Chain of Adenosine receptor A2a (P29274 whole entry): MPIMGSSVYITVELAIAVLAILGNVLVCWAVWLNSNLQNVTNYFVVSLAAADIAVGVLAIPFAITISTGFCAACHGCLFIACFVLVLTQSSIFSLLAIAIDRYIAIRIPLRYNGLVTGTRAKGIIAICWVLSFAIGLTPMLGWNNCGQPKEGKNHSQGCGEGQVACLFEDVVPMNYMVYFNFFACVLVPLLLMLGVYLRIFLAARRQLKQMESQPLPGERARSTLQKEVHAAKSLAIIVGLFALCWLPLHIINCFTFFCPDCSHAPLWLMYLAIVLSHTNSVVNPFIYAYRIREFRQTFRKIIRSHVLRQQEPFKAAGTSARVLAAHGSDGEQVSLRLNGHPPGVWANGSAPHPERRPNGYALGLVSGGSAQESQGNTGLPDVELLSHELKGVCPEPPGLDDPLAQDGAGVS

CC(C)(C)NCC(O)c1ccccc1Cl (stereo not given) [TULOBUTEROL]
> 30 µM: all assays above

CC(C(=O)O)c1ccc2c(c1)CC(=O)c1ccccc1S2 (stereo not given) [ZALTOPROFEN]
> 30 µM: all assays above
